In paper PMC10828988, “Tuning the Softness of the Pendant Arms and the Polyazamacrocyclic Backbone to Chelate the ^203Pb/^212Pb Theranostic Pair” (Inorganic Chemistry, 2024):
“And” between values parts separate entries of the source, which are not always exact repeats. Equal entries are not always repeated. Where two headings read alike, the source gives them in different places. Marks after values point to notes of the source that are not given here.

Key:
[1] = Out-of-cell UV-Vis spectrophotometric titrations (stability constants, pPb); type: physicochemical; settings: for log β, Pb^2+ + L ⇋ [PbL]: UV–Vis spectrophotometric titrations, I = 0.15 M NaNO3, T = 25 °C; for pPb = −log[Pb^2+]free / pPb* (−log of free Pb^2+ plus hydrolysis products): calculated at CPb^2+ = 10^–6 M, Cligand = 10^–5 M, pH = 7.4
Protocol: The ionic strength (I) was fixed to 0.15 M using sodium nitrate (NaNO3) as background electrolytes. All of the experiments described below were repeated at least in triplicate.
UV–Vis spectrophotometric titrations were carried out by the out-of-cell method in the pH range of 0–12 at T = 25 °C. […] A Mettler Toledo pH meter with a glass electrode was used to measure the pH. […] In highly acidic solutions (pH ≪ 2), the pH was computed from the acid concentration (pH = −logCH^+). After the pH adjustment, the vials were sealed, heated to T = 60 °C to ensure complete Pb^2+ complexation, and cooled to room temperature. The absorption spectra were recorded using the same apparatus described for the kinetic measurements (vide supra). The equilibrium was reached when no variations of the electronica spectra or the pH were detected.
All equilibrium data were processed using the least-squares fitting program PITMAP as described in our previous works.[2],[4],[28] The overall equilibrium constants refer to the general equilibria pM^m+ + qH^+ + rL^l– ⇆ MpHqLr^pm+q–rl, where M^m+ represent the metal ion and L^l– represents the deprotonated ligand, and are designated as logβ (βpqr = [MpLqHr]/[M]^p[L]^q[H]^r). The refinements of log β included the previously determined ligand protonation constants and the Pb^2+ hydrolysis products whose equilibrium constants were fixed to the literature values.[27],[39] […] The errors quoted are the standard deviations of the overall stability constants calculated by the PITMAP program.

[2] = Concentration-dependent radiolabeling with [203Pb]Pb2+ (iTLC); settings: for effect of a change in reaction time on RCI: 5 min vs 1 h; for effect of a change in reaction time on RCI / radiochemical incorporation (RCI) of [^203Pb]Pb^2+ / RCI of [^203Pb]Pb^2+: pH = 7, room temperature; for radiochemical incorporation of [^203Pb]Pb^2+: room temperature, 5 min reaction time, chelator concentration as low as 10^–5 M; for RCI of [^203Pb]Pb^2+: after 5 min; for RCI of [^203Pb]Pb^2+ on heating: T = 80 °C
Protocol: Water replaced the ligands in the negative control. All of the radiolabeling for the cyclen-based derivatives was performed at room temperature and monitored at 5 min and 1 h time points whereas heating at T = 80 °C was also employed for TACD3S, TRI4S, and TE4S. All radiolabeling reactions were repeated at least in triplicate.
Radiochemical incorporation (RCI) was determined via instant thin-layer chromatography (iTLC) with silicic acid (SA)-impregnated paper TLC plates (iTLC-SA, Agilent Technologies, USA). Ethylenediamine tetraacetic acid (EDTA, 50 mM, pH = 5.5) was used as the eluent. […] The iTLC plates were analyzed on an Eckert & Ziegler AR-2000 TLC scanner, and all the data were processed with Eckert & Ziegler WinScan software.

[3] = Formation kinetics of Pb2+ complexes (UV-Vis / 1H NMR); type: physicochemical; settings: for time to reach equilibrium of Pb^2+ complexation: pH = 5, equimolar ligand and metal concentrations (10^–4 M), room temperature; for Pb^2+ complex formation: below pH = 4, after 2 weeks at room temperature or prolonged heating, UV-Vis; for ability to complex Pb^2+: pH < 7, 1H NMR of metal-ligand mixtures
Protocol: The formation kinetics of the Pb^2+ complexes was evaluated at room temperature by UV–Vis or ^1H NMR spectroscopy. A typical experiment was performed by mixing equimolar amounts of metal and ligand solutions (final concentrations: 1.0 × 10^–4 M for UV–Vis, 1.0 × 10^–3 M for ^1H NMR) in buffered media at pH = 2 (HCl 10^–2 M), pH = 3.7 (formic/formiate buffer), pH = 5 (acetic/acetate buffer), and pH = 7.4 (2-[4-(2-hydroxyethyl)piperazin-1-yl]ethanesulfonic acid, i.e., HEPES, buffer). To avoid the formation of PbCO3 (Ks = 7.4 × 10^–14), water was boiled before each measurement.
The electronic spectra were collected in the 200–800 nm range at different time points using a Cary 60 UV–Visible spectrophotometer (Agilent) equipped with a 1 cm path length quartz cell. The complexation reactions were monitored by the increase in the absorption peaks diagnostic of the Pb^2+-ligand complex formation at the characteristic wavelength (Table S2) over time. ^1H NMR spectra were recorded on a 400 MHz Bruker Avance III HD spectrometer. All data were collected […] with Topspin 3.5 using standard Bruker processing parameters with Topspin 4.1.1 software. […] Water suppression was carried out with the excitation sculpting pulse scheme.[38]

[4] = Direct in-cell pH-potentiometric titrations; type: physicochemical; settings: pH-potentiometry, I = 0.15 M NaNO3, T = 25 °C
Protocol: Nitric acid (HNO3) solutions were prepared at ∼10^–1 M by dilution of the concentrated acid (Aristar - VWR Chemicals, 69%) and standardized against sodium carbonate (Aldrich, 99.95–100.5%). Carbonate-free sodium hydroxide (NaOH) solutions were prepared at ∼10^–1 M from commercial pellets (Fluka, 99% min) using freshly boiled ultrapure water and standardized using the previously standardized acid. […] Pb^2+ solutions were preprepared from analytical-grade nitrate salt (Pb(NO3)2, Sigma-Aldrich, 99%) and standardized using complexometric titrations with ethylenediaminetetraacetic acid (EDTA) with xylenole orange as an indicator. The ionic strength (I) was fixed to 0.15 M using sodium nitrate (NaNO3) as background electrolytes. All of the experiments described below were repeated at least in triplicate.
Direct (in-cell) pH-potentiometric titrations were carried out with an automated Metrohm 765 Dosimat titrating system using a Metrohm 713 pH meter. […]
All equilibrium data were processed using the least-squares fitting program PITMAP as described in our previous works.[2],[4],[28] […] The refinements of log β included the previously determined ligand protonation constants and the Pb^2+ hydrolysis products whose equilibrium constants were fixed to the literature values.[27],[39] […] The errors quoted are the standard deviations of the overall stability constants calculated by the PITMAP program.

[5] = parameters: method as in PMID 33527221; settings: cited from earlier work
[6] = parameters: method as in PMID 35571797, doi:10.1002/ejic.200700819; settings: state-of-the-art ligands, computed from literature constants; cited from earlier work
[7] = Acid-mediated dissociation kinetics in aqueous HCl (UV-Vis); type: physicochemical; settings: room temperature
Source text: The dissociation kinetics of the Pb^2+ complexes were studied under pseudo-first-order conditions at room temperature without control of the ionic strength by the addition of a concentrated aqueous solution of HCl (0.01 to 1 M) to aqueous solutions of the preformed complexes. The concentration of the Pb^2+ complexes after the H^+ addition was 1.0 × 10^–4 M. The dissociation reaction was followed by the decreasing intensity of the absorption band of the complexes at the characteristic wavelength (Table S2) using the same apparatus described for the formation kinetic measurements (vide supra).
The data were processed and fitted using the equation lnAt = lnA0 – ^dkobst, where At and A0 are the absorbances at time t and at the beginning of the reaction and ^dkobs is the observed dissociation rate constant. The corresponding half-life was obtained from the equation t1/2 = ln(2)/^dkobs.

Row | Compound | log β, Pb^2+ + L ⇋ [PbL] [1] | pPb = −log[Pb^2+]free [1] | pPb* (−log of free Pb^2+ plus hydrolysis products) [1] | effect of a change in reaction time on RCI [2] | radiochemical incorporation (RCI) of [^203Pb]Pb^2+ ([2]; ligand 10^–4 M, 1 h) | radiochemical incorporation (RCI) of [^203Pb]Pb^2+ ([2]; ligand 10^–7 M, 1 h) [%] | time to reach equilibrium of Pb^2+ complexation [3] | RCI of [^203Pb]Pb^2+ on heating ([2]; ligand 10^–4 M) | ability to complex Pb^2+ [3] | other results
1 | 1,4,7-tris[2-(methylsulfanyl)ethyl]-10-acetamido-1,4,7,10-tetraazacyclododecane [DO3SAm] | 16.8 ± 0.1 | 14.2 | 13.9 | no effect | > 90% | 14 ± 4 | 1 h |  |  | radiochemical incorporation (RCI) of [^203Pb]Pb^2+ ([2]; ligand 10^–5 M, 1 h): > 90%; radiochemical incorporation (RCI) of [^203Pb]Pb^2+ ([2]; ligand 10^–6 M, 1 h): 68 ± 4%; radiochemical incorporation of [^203Pb]Pb^2+ [2]: quantitative radiochemical incorporation
2 | CSCCN1CCN(CC(=O)O)CCN(CCSC)CCN(CC(=O)O)CC1 [DO2A2S, 1,7-bis[2-(methylsulfanyl)ethyl]-1,4,7,10-tetraazacyclododecane-4,10-diacetic acid] | 18.3 ± 0.1 | 15.7 | 15.4 | no effect | > 90% | 56 ± 4 | practically instantaneous |  |  | log β, Pb^2+ + H^+ + L^2– ⇋ [PbHL]^+ [4]: 20.89 ± 0.07 ^c; log β, Pb^2+ + L^2– ⇋ [PbL] [4]: 18.2 ± 0.1; radiochemical incorporation (RCI) of [^203Pb]Pb^2+ ([2]; ligand 10^–5 M, 1 h): > 90%; radiochemical incorporation (RCI) of [^203Pb]Pb^2+ ([2]; ligand 10^–6 M, 1 h): 68 ± 1%; radiochemical incorporation of [^203Pb]Pb^2+ [2]: quantitative radiochemical incorporation
3 | CSCCN1CCNCCN(CCSC)CCN(CCSC)CC1 [DO3S, 1,4,7-tris[2-(methylsulfanyl)ethyl]-1,4,7,10-tetraazacyclododecane] | 14.2 ± 0.1 | 11.3 | 11.0 |  | 88 ± 1% and 88% | 2 ± 1 | 6 h |  |  | RCI of [^203Pb]Pb^2+ [2]: 65%; Pb^2+ complex formation [3]: No complex formation was detected
4 | CSCCN1CCN(CCSC)CCN(CCSC)CCN(CCSC)CC1 [DO4S, 1,4,7,10-tetrakis[2-(methylsulfanyl)ethyl]-1,4,7,10-tetraazacyclododecane] | 12.3 ± 0.1 | 10.2 | 10.0 |  | 81 ± 10% and 81% | 1.4 ± 0.4 | 24 h |  |  | RCI of [^203Pb]Pb^2+ [2]: 35%; Pb^2+ complex formation [3]: No complex formation was detected; reaction time of Pb^2+ complexation ([3]; pH = 7.4, room temperature): 1 h
5 | O=C(O)CN1CCN(CC(=O)O)CCN(CC(=O)O)CCN(CC(=O)O)CC1 [DOTA, 1,4,7,10-tetraazacyclododecane-1,4,7,10-tetraacetic acid] |  |  |  |  |  |  |  |  |  | RCI of [^203Pb]Pb^2+ ([5]; ligand 10^–4 M): 96 ± 1%; RCI of [^203Pb]Pb^2+ ([5]; ligand 10^–5 M): 76 ± 9%; RCI of [^203Pb]Pb^2+ ([5]; ligand 10^–6 M): 3 ± 1%; RCI of [^203Pb]Pb^2+ ([5]; ligand 10^–7 M): 1.5 ± 0.2%; pPb [6]: 20
6 | CSCCN1CCCN(CCSC)CCCN(CCSC)CCC1 [TACD3S, 1,5,9-tris[2-(methylsulfanyl)ethyl]-1,5,9-triazacyclododecane] |  |  |  |  | no radiometal incorporation was observed |  |  | only vaguely improved | not be able to complex Pb^2+ | 
7 | NC(=O)CN1CCN(CC(N)=O)CCN(CC(N)=O)CCN(CC(N)=O)CC1 [TCMC, 1,4,7,10-tetraaza-1,4,7,10-tetra-(2-carbamoylmethyl)-cyclododecane, reference compound] |  |  |  | no effect |  | 41 ± 1 |  |  |  | radiochemical incorporation (RCI) of [^203Pb]Pb^2+ ([2]; ligand concentrations higher than 10^–6 M): quantitative; pPb [6]: > 18
8 | CSCCN1CCCN(CCSC)CCN(CCSC)CCCN(CCSC)CC1 [TE4S, 1,4,8,11-tetrakis[2-(methylsulfanyl)ethyl]-1,4,8,11-tetrazacyclotetradecane] |  |  |  |  | no radiometal incorporation was observed |  |  | only vaguely improved | not be able to complex Pb^2+ | 
9 | CSCCN1CCCN(CCSC)CCN(CCSC)CCN(CCSC)CC1 [TRI4S, 1,4,7,10-tetrakis[2-(methylsulfanyl)ethyl]-1,4,7,10-tetrazacyclotridecane] |  |  |  |  | no radiometal incorporation was observed |  |  | only vaguely improved | not be able to complex Pb^2+ | 
10 | CSCCN1CCNCCN(CCSC)CCN(CCSC)CC1.[Pb+2] [[Pb(DO3S)]^2+] |  |  |  |  |  |  |  |  |  | t1/2 acid-assisted dissociation ([7]; CHCl 0.01 M): 12 ± 2 min; ^dkobs acid-assisted dissociation ([7]; CHCl 0.1 M): 1.5 ± 0.3 min^–1; t1/2 acid-assisted dissociation ([7]; CHCl 0.1 M): 0.47 ± 0.09 min; t1/2 acid-assisted dissociation ([7]; CHCl 1.0 M): ^b (Instantaneous decomplexation during the reagent mixing time.)
